{"source": "PubChem BioAssay AID1918934", "about": "(Molecular Pharmacology Branch, DTP, NCI, 2023)", "test_system": "292921-168-R-J2-PDC complex spheroid viability", "experiment": "Anticancer human tumor 292921-168-R-J2-PDC patient-derived pancreatic carcinoma cell line growth inhibition", "details": "for IC50: curve of first compound; for viability, T/C: stronger effect = lower value", "method_in_brief": "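Complex spheroids of tumor cells with HUVEC and human MSCs, exposed to iadademstat combined with other agents. Each agent tested in half-log steps from near clinical Cmax (else 10 microM top), DMSO ≤0.25%.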"}
{"compound": "O=C(C=Cn1cnc(-c2cc(C(F)(F)F)cc(C(F)(F)F)c2)n1)NNc1cnccn1", "note": "+ NC1CCC(NC2CC2c2ccccc2)CC1;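 also: seven day compound exposure before luminescent viability read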;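 as to viability, T/C: 100% = DMSO vehicle control wells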", "values": [{"measurement": "IC50", "setting": "second compound 0.1 µM", "result": 5.43, "unit": "nM"}, {"measurement": "IC50", "setting": "second compound 0.316 µM", "result": 8.67, "unit": "nM"}, {"measurement": "IC50", "setting": "second compound 1 µM", "result": 10.6, "unit": "nM"}, {"measurement": "IC50", "setting": "second compound 3.16 µM", "result": 6.77, "unit": "nM"}, {"measurement": "IC50", "setting": "second compound 10 µM", "result": 5.92, "unit": "nM"}, {"measurement": "viability, T/C", "setting": "second compound 0.1 µM, first compound 0.00316 µM", "result": 52.7, "unit": "%"}, {"measurement": "viability, T/C", "setting": "second compound 0.1 µM, first compound 0.01 µM", "result": 47.4, "unit": "%"}, {"measurement": "viability, T/C", "setting": "second compound 0.1 µM, first compound 0.0316 µM", "result": 25.9, "unit": "%"}, {"measurement": "viability, T/C", "setting": "second compound 0.1 µM, first compound 0.1 µM", "result": 13.2, "unit": "%"}, {"measurement": "viability, T/C", "setting": "second compound 0.1 µM, first compound 0.316 µM", "result": 6.69, "unit": "%"}, {"measurement": "viability, T/C", "setting": "second compound 0.1 µM, first compound 1 µM", "result": 6.34, "unit": "%"}, {"measurement": "viability, T/C", "setting": "second compound 0.316 µM, first compound 0.00316 µM", "result": 54.7, "unit": "%"}, {"measurement": "viability, T/C", "setting": "second compound 0.316 µM, first compound 0.01 µM", "result": 50.4, "unit": "%"}, {"measurement": "viability, T/C", "setting": "second compound 0.316 µM, first compound 0.0316 µM", "result": 27, "unit": "%"}, {"measurement": "viability, T/C", "setting": "second compound 0.316 µM, first compound 0.1 µM", "result": 13.6, "unit": "%"}, {"measurement": "viability, T/C", "setting": "second compound 0.316 µM, first compound 0.316 µM", "result": 8.09, "unit": "%"}, {"measurement": "viability, T/C", "setting": "second compound 0.316 µM, first compound 1 µM", "result": 7.2, "unit": "%"}, {"measurement": "viability, T/C", "setting": "second compound 1 µM, first compound 0.00316 µM", "result": 56.7, "unit": "%"}, {"measurement": "viability, T/C", "setting": "second compound 1 µM, first compound 0.01 µM", "result": 52.1, "unit": "%"}, {"measurement": "viability, T/C", "setting": "second compound 1 µM, first compound 0.0316 µM", "result": 29, "unit": "%"}, {"measurement": "viability, T/C", "setting": "second compound 1 µM, first compound 0.1 µM", "result": 13.8, "unit": "%"}, {"measurement": "viability, T/C", "setting": "second compound 1 µM, first compound 0.316 µM", "result": 9.01, "unit": "%"}, {"measurement": "viability, T/C", "setting": "second compound 1 µM, first compound 1 µM", "result": 7.09, "unit": "%"}, {"measurement": "viability, T/C", "setting": "second compound 3.16 µM, first compound 0.00316 µM", "result": 53, "unit": "%"}, {"measurement": "viability, T/C", "setting": "second compound 3.16 µM, first compound 0.01 µM", "result": 48.5, "unit": "%"}, {"measurement": "viability, T/C", "setting": "second compound 3.16 µM, first compound 0.0316 µM", "result": 29.9, "unit": "%"}, {"measurement": "viability, T/C", "setting": "second compound 3.16 µM, first compound 0.1 µM", "result": 12.9, "unit": "%"}, {"measurement": "viability, T/C", "setting": "second compound 3.16 µM, first compound 0.316 µM", "result": 8.57, "unit": "%"}, {"measurement": "viability, T/C", "setting": "second compound 3.16 µM, first compound 1 µM", "result": 8.41, "unit": "%"}, {"measurement": "viability, T/C", "setting": "second compound 10 µM, first compound 0.00316 µM", "result": 53.2, "unit": "%"}, {"measurement": "viability, T/C", "setting": "second compound 10 µM, first compound 0.01 µM", "result": 47.8, "unit": "%"}, {"measurement": "viability, T/C", "setting": "second compound 10 µM, first compound 0.0316 µM", "result": 30.2, "unit": "%"}, {"measurement": "viability, T/C", "setting": "second compound 10 µM, first compound 0.1 µM", "result": 16.3, "unit": "%"}, {"measurement": "viability, T/C", "setting": "second compound 10 µM, first compound 0.316 µM", "result": 9.15, "unit": "%"}, {"measurement": "viability, T/C", "setting": "second compound 10 µM, first compound 1 µM", "result": 8.4, "unit": "%"}]}
